Assay results from patent US12465626B2, “Traditional Chinese medicine composition with improving cognition effect, preparation method thereof and traditional Chinese medicine preparation” (Chenland Nutritionals, Inc., priority 2019, dated 2025).

Experiments:
Format in all cases: in vivo
mice [1] = assay: Novel object recognition test of mice
Description: Adaptation period: on the first day, the mice were placed in the test room for 1 hour of environmental adaptation and familiarity, and then placed in the open field box for 20 minutes (there was no object in the box), so as to eliminate the impact of the open field box on the tested mice. After the experiment of each mouse, the open field box was cleaned with 75% ethanol.
Familiarization period: on the second day (24 hours after the adaptation period), the mice were placed in the test room for 1 hour of environmental adaptation and familiarization, then two yellow cylindrical bottles of the same size and texture were placed at the left and right ends of the same side of the open field box as familiar objects, and then the mouse was put into the box with its back towards the objects. The mouse's exploration of the objects within 5 min was recorded (timing standard: the exploration time within 2 cm of the mouse's nose or mouth from the object, and its lying on the objects or just walking around the objects was not included). […]
Test period: 2 h after the familiarization period, replace a yellow cylindrical bottle in the open field box was replaced with a green conical bottle of the same size as a strange object, and then the mouse was put into the box with its back towards the objects. […] The recognition index (RI) was calculated: RI=Tn/(Tn+Tf). […]

mice [2] = assay: Step-down test of mice (scopolamine hydrobromide)
Description: (§1) Statistical methods: the data were analyzed by GraphPad Prism 7.01 software (GraphPad Software, Inc., San Diego, California, USA). Before the parameter test of all group tests, the data were tested by normality test (Kolmogorov-Smirnov test) and variance homogeneity test (Levene test). Except for the escape latency in water maze, all test parameters were compared between groups by non paired T-test (single tail), and the test level was set as p<0.05. The escape latency in water maze was compared between two groups by two-way analysis of variance. The post test was conducted by Sidak's multiple comparisons test, and the test level was set as p<0.05.
Test method: the grouping, sample preparation and modeling of mouse step-down test were the same as above. At the beginning of the test, the step-down training was carried out, where the adaptation was carried out for 3 min and then the power on training was carried out for 300 s. The test was conducted after 24 hours. The drug was administered 1 hour before the test, and scopolamine hydrobromide and normal saline were injected intraperitoneally 15-20 minutes before the test. Then the mouse was put on the platform and the latency of jumping off the platform for the first time and the number of errors (getting off the platform) within 300 s were recorded.

mice [3] = assay: Morris water maze test, directional navigation experiment; details: max 60 s
Description: as §1
(§2) Implementation method: the test procedure included two parts: directional navigation and space exploration. A total of 5 consecutive days were tested. The first part was the directional navigation experiment, which was tested on mice for 4 days, and the second part was the space exploration experiment, which was tested for 1 day. The melanin edible toner was […] to hide the platform, and it was kept in sharp contrast with the color of mice during camera shooting for easy tracking. The platform was located 0.8 cm below the water surface and the water depth was 21 cm. It was located in the NW quadrant. The water temperature in the water maze was maintained at a constant temperature of 22-24° C. with a heating rod.
Directional navigation experiment: each mouse was trained 4 times a day, with an interval of 15-20 min. During the test, the water entry point was selected in a semi random way each time. The experimenter held the mouse by hand, made it face the pool wall, and gently put it into the water. In each training, if the mouse could find the platform within 60 s, and the time spent on the platform was more than 2 S, it was regarded as the sign of successful platform search. The time spent by the mice from entering the water to successful platform search was recorded as the latency. […] After the mice boarded the platform, the mice were kept on the platform for 10 s, so that they could carry out spatial learning and memory according to the reference objects of the four quadrants, and the tension of the mice were reduced. The average value of daily latency was calculated to evaluate the acquisition ability of animals' spatial memory.

mice [4] = assay: Morris water maze test, space exploration experiment; details: exploration period
Description: as §1, §2
Space exploration experiment: the platform was removed and each mouse was tested once for 60 s. The SE quadrant was selected and the mouse was gently put into the water facing the edge of the pool wall. The spatial memory ability of the animal was evaluated by the number of times the animal crossed the original platform position within 60 s, the run ratio and time ratio of the original platform quadrant (i.e. the ratio of the run and time of the animal's original platform quadrant to the total run and time).

[5] = after intragastric administration

## C/C=C1\[C@H]2C=C(C)C[C@]1(N)c1ccc(=O)[nH]c1C2 [Positive drug, huperzine-A]
Mice [1]; RI=Tn/(Tn+Tf), intragastric, dose (crude drug) 1.002 g/kg (Embodiment 1, Comparative examples 1, 2), 1.200 g/kg (Comparative example 3), 0.67 tablets/kg (positive drug), model group 0.4180, control 0.5715
  Recognition index (x[…]SE): 0.5341 ± 0.0428
Mice [1]; [5]
  Recognition index compared with the model group: increased significantly
Mice [2]; [5]
  Step-down latency compared with the model group: significantly longer
  Step-down number of errors compared with the model group: significantly lower
Mice [2]; errors within 300 s, doses as Table 3, model group 2.714, control 1.375
  Number of errors (x[…]SE): 1.833 ± 0.3445
Mice [2]; latency of jumping off the platform, max 300 s, drug 1 hour before test, doses as Table 2, model group 42.01, control 100.3
  Latency/s: 94.12 ± 29.48 s
Mice [3]; first day, doses as Table 4, model group 53.2
  Escape latency First day (s) (x[…]SE): 52.7 ± 2.29 s
Mice [3]; fourth day, model group 47.7
  Escape latency Fourth day (s) (x[…]SE): 43.5 ± 2.83 s
Mice [3]; second day, model group 44.2
  Escape latency Second day (s) (x[…]SE): 44.5 ± 2.80 s
Mice [3]; third day, model group 42.4
  Escape latency Third day (s) (x[…]SE): 43.6 ± 2.91 s
Mice [4]; 60 s, model group 14.15, control 17.30
  Stay time in target quadrant/s (x[…]SE): 15.04 ± 0.9555 s
Mice [4]; within 60 s, model group 1.308, control 3.125
  Number of crossing platform (x[…]SE): 2.786 ± 0.4591
Mice [4]; [5]
  Escape latency compared with the model group: significantly shorter
  Number of crossing the platform compared with the model group: significantly higher
Mice [4]; doses as Table 5, model group 39.27, control 20.05
  Escape latency/s (x[…]SE): 22.91 ± 3.922 s
Mice [4]; model group 2373, control 2821
  Run distance of target quadrant/mm (x[…]SE): 2867 ± 207.6 mm
